Experimental data taken from ChEMBL document CHEMBL3044586, “Design, synthesis, and anticonvulsant screening of some substituted piperazine and aniline derivatives of 5-phenyl-oxazolidin-2,4-diones and 5,5-diphenylimidazolidin-2,4 diones” (Med Chem Res, 2012).
The source made the active and inactive calls. The rule behind the calls is not given here.

What was measured:
Mus musculus [1] = test: Neurotoxicity against Mus musculus Swiss albino (mouse) assessed as inability to maintain equilibrium on rod at 30 to 300 mg/kg, ip measured after 0.5 hr by rotarod test; format: toxicity, organism-based; set-up: dose 30-300 mg/kg, route intraperitoneal; conditions: in vivo
Mus musculus [2] = test: Anticonvulsant activity in Mus musculus Swiss albino (mouse) assessed as reduction in maximal electroshock-induced seizure at 300 mg/kg, ip measured after 4 hr; format: functional, organism-based; set-up: dose 300 mg/kg
Mus musculus [3] = test: Anticonvulsant activity in Mus musculus Swiss albino (mouse) assessed as reduction in maximal electroshock-induced seizure at 30 to 300 mg/kg, ip measured after 0.5 hr; format: functional, organism-based
Mus musculus [4] = test: Neurotoxicity against Mus musculus Swiss albino (mouse) assessed as inability to maintain equilibrium on rod at 300 mg/kg, ip measured after 4 hr by rotarod test; format: toxicity, organism-based; set-up: dose 300 mg/kg, route intraperitoneal; conditions: in vivo
Rattus norvegicus [5] = test: Presynaptic agonist activity at 5HT1A receptor in Rattus norvegicus Wistar (rat) assessed as change in rectal temperature at 20 mg/kg, ip measured after 120 min (reference value: 0.0 +/- 0.1 degC); format: functional, organism-based; set-up: dose 20 mg/kg
Rattus norvegicus [6] = test: Anticonvulsant activity in Rattus norvegicus Wistar (rat) assessed as reduction in maximal electroshock-induced seizures at 30 mg/kg, po measured after 0.5 hr; format: functional, organism-based; set-up: dose 30 mg/kg
Rattus norvegicus [7] = test: Presynaptic agonist activity at 5HT1A receptor in Rattus norvegicus Wistar (rat) assessed as change in rectal temperature at 10 mg/kg, ip measured after 90 min (reference value: -0.2 +/- 0.1 degC); format: functional, organism-based; set-up: dose 10 mg/kg
Rattus norvegicus [8] = test: Presynaptic agonist activity at 5HT1A receptor in Rattus norvegicus Wistar (rat) assessed as change in rectal temperature at 10 mg/kg, ip measured after 30 min (reference value: -0.1 +/- 0.1 degC); format: functional, organism-based; set-up: dose 10 mg/kg
Rattus norvegicus [9] = test: Presynaptic agonist activity at 5HT1A receptor in Rattus norvegicus Wistar (rat) assessed as change in rectal temperature at 10 mg/kg, ip measured after 60 min (reference value: 0.0 +/- 0.1 degC); format: functional, organism-based; set-up: dose 10 mg/kg
Rattus norvegicus [10] = test: Neurotoxicity against Rattus norvegicus Wistar (rat) assessed as inability to maintain equilibrium on rod at 30 mg/kg, po measured after 4 hr by rotarod test; format: toxicity, organism-based; set-up: dose 30 mg/kg, route oral; conditions: in vivo
Rattus norvegicus [11] = test: Presynaptic agonist activity at 5HT1A receptor in Rattus norvegicus Wistar (rat) assessed as change in rectal temperature at 20 mg/kg, ip measured after 90 min (reference value: -0.2 +/- 0.1 degC); format: functional, organism-based; set-up: dose 20 mg/kg
Rattus norvegicus [12] = test: Neurotoxicity against Rattus norvegicus Wistar (rat) assessed as inability to maintain equilibrium on rod at 30 mg/kg, po measured after 0.5 hr by rotarod test; format: toxicity, organism-based; set-up: dose 30 mg/kg, route oral; conditions: in vivo
Rattus norvegicus [13] = test: Presynaptic agonist activity at 5HT1A receptor in Rattus norvegicus Wistar (rat) assessed as change in rectal temperature at 20 mg/kg, ip measured after 60 min (reference value: 0.0 +/- 0.1 degC); format: functional, organism-based; set-up: dose 20 mg/kg
Mus musculus [14] = test: Anticonvulsant activity in Mus musculus Swiss albino (mouse) assessed as reduction in maximal electroshock-induced seizure at 100 mg/kg, ip measured after 4 hr; format: functional, organism-based; set-up: dose 100 mg/kg
Mus musculus [15] = test: Binding affinity to 5HT2A receptor in ip dosed Mus musculus Swiss albino (mouse) assessed as effect on +/-DOI-induced head twitching administered 60 min prior to +/-DOI-challenge measured for 20 min; format: functional, organism-based
Rattus norvegicus [16] = test: Anticonvulsant activity in Rattus norvegicus Wistar (rat) assessed as reduction in maximal electroshock-induced seizures at 30 mg/kg, po measured after 4 hr; format: functional, organism-based; set-up: dose 30 mg/kg
Mus musculus [17] = test: Neurotoxicity against Mus musculus Swiss albino (mouse) assessed as inability to maintain equilibrium on rod at 30 to 300 mg/kg, ip measured after 4 hr by rotarod test; format: toxicity, organism-based; set-up: dose 30-300 mg/kg, route intraperitoneal; conditions: in vivo
Rattus norvegicus [18] = test: Presynaptic agonist activity at 5HT1A receptor in Rattus norvegicus Wistar (rat) assessed as change in rectal temperature at 10 mg/kg, ip measured after 120 min (reference value: 0.0 +/- 0.1 degC); format: functional, organism-based; set-up: dose 10 mg/kg
Rattus norvegicus [19] = test: Postsynaptic antagonist activity at 5HT1A receptor in Rattus norvegicus Wistar (rat) assessed as inhibition of 8-OH-DPAT-induced lower lip retraction at 10 to 20 mg/kg, ip administered 45 min prior to 8-OH-DPAT-challenge measured after 15 min; format: functional, organism-based
Rattus norvegicus [20] = test: Presynaptic agonist activity at 5HT1A receptor in Rattus norvegicus Wistar (rat) assessed as change in rectal temperature at 20 mg/kg, ip measured after 30 min (reference value: -0.1 +/- 0.1 degC); format: functional, organism-based; set-up: dose 20 mg/kg
Mus musculus [21] = test: Anticonvulsant activity in Mus musculus Swiss albino (mouse) assessed as reduction in maximal electroshock-induced seizure at 30 to 300 mg/kg, ip measured after 4 hr; format: functional, organism-based
Mus musculus [22] = test: Neurotoxicity against Mus musculus Swiss albino (mouse) assessed as inability to maintain equilibrium on rod at 100 mg/kg, ip measured after 0.5 hr by rotarod test; format: toxicity, organism-based; set-up: dose 100 mg/kg, route intraperitoneal; conditions: in vivo

Row | SMILES | Activity (Mus musculus [1]) | Activity (Mus musculus [2]) | Activity (Mus musculus [3]) | Activity (Mus musculus [4]) | Activity (Mus musculus [17]) | Activity (Mus musculus [21]) | also measured
1 | O=C1OC(c2ccccc2)C(=O)N1CCNc1ccc(F)cc1 (stereo not drawn) | Non-toxic | Active | inactive | Toxic |  |  | 
2 | O=C1NC(c2ccccc2)(c2ccccc2)C(=O)N1CCN1CCN(c2ccc([N+](=O)[O-])cc2)CC1 | Non-toxic | Active | inactive | Toxic |  |  | 
3 | O=C1NC(c2ccccc2)(c2ccccc2)C(=O)N1CCN1CCN(c2ccc(O)cc2)CC1 | Non-toxic | Active | inactive | Toxic |  |  | 
4 | O=C1OC(c2ccccc2)C(=O)N1CCN1CCN(c2ccc([N+](=O)[O-])cc2)CC1 (stereo not drawn) | Non-toxic | Active | inactive | Toxic |  |  | 
5 | COc1ccc(NCCN2C(=O)OC(c3ccccc3)C2=O)cc1 (stereo not drawn) | Non-toxic |  | inactive |  | Non-toxic |  | deltaT (Rattus norvegicus [5]): -1.3 °C; Activity (Rattus norvegicus [6]): inactive; deltaT (Rattus norvegicus [7]): -0.8 °C; deltaT (Rattus norvegicus [8]): -0.5 °C; deltaT (Rattus norvegicus [9]): -0.8 °C; Activity (Rattus norvegicus [10]): Non-toxic; deltaT (Rattus norvegicus [11]): -1.5 °C; Activity (Rattus norvegicus [12]): Non-toxic; deltaT (Rattus norvegicus [13]): -1.5 °C; Activity (Mus musculus [14]): Active; Activity (Mus musculus [15]): inactive; Activity (Rattus norvegicus [16]): inactive; deltaT (Rattus norvegicus [18]): -0.7 °C; inhibition (Rattus norvegicus [19]): Active; deltaT (Rattus norvegicus [20]): -1.1 °C
6 | O=C1OC(c2ccccc2)C(=O)N1CCN1CCN(c2ccccn2)CC1 (stereo not drawn) | Non-toxic |  | inactive |  | Non-toxic | inactive | 
7 | O=C1NC(c2ccccc2)(c2ccccc2)C(=O)N1CCNc1ccc(O)cc1 | Non-toxic |  | inactive |  | Non-toxic | inactive | 
8 | O=C1NC(c2ccccc2)(c2ccccc2)C(=O)N1CCN1CCN(c2ccc(Cl)cc2)CC1 | Non-toxic |  | inactive |  | Non-toxic | inactive | 
9 | Cc1ccc(N2CCN(CCN3C(=O)NC(c4ccccc4)(c4ccccc4)C3=O)CC2)cc1 |  | Active | inactive | Toxic |  |  | Activity (Mus musculus [22]): Toxic
10 | O=C1NC(c2ccccc2)(c2ccccc2)C(=O)N1CCNc1ccc(Cl)cc1 | Non-toxic |  | inactive |  | Non-toxic | inactive | 
11 | O=C1OC(c2ccccc2)C(=O)N1CCN1CCN(c2ccc(Cl)cc2)CC1 (stereo not drawn) | Non-toxic |  | inactive |  | Non-toxic | inactive | 
